Results reported in patent US7754746B2, “Organic compounds” (Novartis AG, priority 2005, dated 2010).

Target: recombinant GST-p110γ (human PI3Kγ residues 38-1102) (Homo sapiens, UniProt P48736)
Experiment: in vitro kinase assay (Scintillation Proximity Assay), phosphate transfer from ATP to phosphatidylinositol
Conditions: 12.5 μM ATP in assay mix, 60 minutes at room temperature
Protocol: An in vitro kinase assay was established that measures the transfer of the terminal phosphate of adenosine triphosphate to phosphatidylinositol. The kinase reaction is performed in a white 96 well microtitre plate as a Scintillation Proximity Assay. […] The reaction is started by the addition of 20 μl of enzyme mix (40 mM Tris, 200 mM NaCl, 2 mM EGTA containing recombinant GST-p110γ).

Chain of recombinant GST-p110γ (human PI3Kγ residues 38-1102) (P48736 38-1102): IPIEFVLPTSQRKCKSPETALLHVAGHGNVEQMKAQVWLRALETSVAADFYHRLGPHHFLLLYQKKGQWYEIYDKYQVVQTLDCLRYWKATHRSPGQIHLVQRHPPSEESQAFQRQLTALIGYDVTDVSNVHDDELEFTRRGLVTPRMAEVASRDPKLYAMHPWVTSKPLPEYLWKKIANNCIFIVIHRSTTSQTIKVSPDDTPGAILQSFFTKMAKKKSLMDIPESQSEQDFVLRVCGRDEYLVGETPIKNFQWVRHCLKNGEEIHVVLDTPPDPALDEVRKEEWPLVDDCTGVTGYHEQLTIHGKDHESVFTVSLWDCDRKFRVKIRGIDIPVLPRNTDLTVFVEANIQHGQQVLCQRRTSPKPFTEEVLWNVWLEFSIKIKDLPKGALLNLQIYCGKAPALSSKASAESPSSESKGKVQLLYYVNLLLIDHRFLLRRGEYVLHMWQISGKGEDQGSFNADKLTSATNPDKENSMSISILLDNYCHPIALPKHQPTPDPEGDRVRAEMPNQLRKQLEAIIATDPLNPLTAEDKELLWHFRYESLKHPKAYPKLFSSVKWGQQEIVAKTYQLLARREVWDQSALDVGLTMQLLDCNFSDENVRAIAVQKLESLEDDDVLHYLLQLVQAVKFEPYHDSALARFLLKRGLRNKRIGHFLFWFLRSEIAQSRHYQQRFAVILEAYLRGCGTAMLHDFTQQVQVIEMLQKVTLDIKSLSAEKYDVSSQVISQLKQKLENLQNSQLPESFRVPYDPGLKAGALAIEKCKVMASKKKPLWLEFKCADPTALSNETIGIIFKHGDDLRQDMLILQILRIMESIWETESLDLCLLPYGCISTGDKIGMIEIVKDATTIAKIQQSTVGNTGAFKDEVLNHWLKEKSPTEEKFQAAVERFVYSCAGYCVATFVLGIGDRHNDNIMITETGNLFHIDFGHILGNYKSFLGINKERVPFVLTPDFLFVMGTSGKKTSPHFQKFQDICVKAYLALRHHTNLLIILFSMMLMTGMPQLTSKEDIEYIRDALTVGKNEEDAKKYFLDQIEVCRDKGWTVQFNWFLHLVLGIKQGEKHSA

CC(=O)c1ccc(-c2sc(NC(=O)NCCc3cn(CCF)cn3)nc2C)cc1 [Example 5]
IC50: 110 nM
